# Read-outs that look alike come from different tables or passages of the source.
# System: Mycobacterium tuberculosis H37Rv
# Assay: Mycobacterium tuberculosis H37Rv inhibition assay (MIC, microtiter plate, alamar blue)
# Assay type: cell-based
# Details: ATCC 25618 / H37Rv
# [1] = H37Rv strain (ATCC25618), Middlebrook 7H9, 37° C. six days, alamar blue fluorescence after 48 hours, read-out: MIC value
# [2] = read-out: MIC value, H37Rv strain (ATCC25618), Middlebrook 7H9, 37° C. six days, alamar blue fluorescence after 48 hours
SMILES,MIC [1],MIC [2]
"O=c1ccc2ccc(F)c3c2n1CC3(O)CN1CCC(NCc2cc3c(nn2)OCCS3)CC1 (centres unmarked) [Example 29, 1-({4-[(6,7-Dihydro[1,4]oxathiino[2,3-c]pyridazin-3-ylmethyl)amino]-1-piperidinyl}methyl)-9-fluoro-1-hydroxy-1,2-dihydro-4H-pyrrolo[3,2,1-ij]quinolin-4-one]",≤ 4 µg/mL,
"O=C1COc2cc(Cl)c(CNC[C@H]3CCN(CC4Cn5c(=O)ccc6ccc(F)c4c65)C3)nc2N1 (stereo partly drawn) [Example 33, 1-{[(3R)-3-({[(7-Chloro-3-oxo-3,4-dihydro-2H-pyrido [3,2-b][1,4]oxazin-6-yl)methyl]amino}methyl)-1-pyrrolidinyl]methyl}-9-fluoro-1,2-dihydro-4H-pyrrolo[3,2,1-ij]quinolin-4-one]",≤ 4 µg/mL,
"O=c1ccc2ccc(F)c3c2n1C[C@H]3CN1CCC(NCc2ccc3c(c2F)OCCO3)CC1 [Example 80, (1R)-9-fluoro-1-[(4-{[(5-fluoro-2,3-dihydro-1,4-benzodioxin-6-yl)methyl]amino}-1-piperidinyl)methyl]-1,2-dihydro-4H-pyrrolo[3,2,1-ij]quinolin-4-one]",,≤ 4 µg/mL
"O=c1ccc2ccc(F)c3c2n1CC3CN1CCC(NCc2ccc3c(c2)C(O)CCC3)CC1 (centres unmarked) [Example 75, 9-fluoro-1-[(4-{[(8-hydroxy-5,6,7,8-tetrahydro-2-naphthalenyl)methyl]amino}-1-piperidinyl)methyl]-1,2-dihydro-4H-pyrrolo[3,2,1-ij]quinolin-4-one]",≤ 4 µg/mL,
"O=C1COc2ccc(CNC[C@H]3CCN(CC4Cn5c(=O)ccc6ccc(F)c4c65)C3)nc2N1 (stereo partly drawn) [Example 35, 9-Fluoro-1-{[(3R)-3-({[(3-oxo-3,4-dihydro-2H-pyrido[3,2-b][1,4]oxazin-6-yl)methyl]amino}methyl)-1-pyrrolidinyl]methyl}-1,2-dihydro-4H-pyrrolo[3,2,1-ij]quinolin-4-one]",≤ 4 µg/mL,
"O=c1ccc2ccc(F)c3c2n1CC3CN1CC[C@H](NCc2cc3c(cn2)OCC3)[C@H](O)C1 (stereo partly drawn) [Example 8, 1-({(3R,4S)-4-[(2,3-Dihydrofuro[2,3-c]pyridin-5-ylmethyl)amino]-3-hydroxy-1-piperidinyl}methyl)-9-fluoro-1,2-dihydro-4H-pyrrolo [3,2,1-ij]quinolin-4-one]",,≤ 4 µg/mL
"O=c1ccc2ccc(F)c3c2n1CC3CN1CCC(NCc2cnc3c(c2)OCCO3)CC1 (centres unmarked) [Example 22, 1-({4-[(2,3-dihydro[1,4]dioxino[2,3-b]pyridin-7-ylmethyl)amino]-1-piperidinyl}methyl)-9-fluoro-1,2-dihydro-4H-pyrrolo[3,2,1-ij]quinolin-4-one]",,≤ 4 µg/mL
"O=c1ccc2ccc(F)c3c2n1CC3CN1CCC(NCc2cc3c(cn2)OCCO3)CC1 (centres unmarked) [Example 2, 1-({4-[(2,3-Dihydro[1,4]dioxino[2,3-c]pyridin-7-ylmethyl)amino]-1-piperidinyl}methyl)-9-fluoro-1,2-dihydro-4H-pyrrolo[3,2,1-ij]quinolin-4-one]",≤ 4 µg/mL,

# From US20100048544A1, “PYRROLO (3, 2, 1-IJ) QUINOLINE-4-ONE-DERIVATIVES FOR TREATING TUBERCULOSIS” (priority 2007, published 2010)
